Measurements reported in PubChem BioAssay AID206 (DTP/NCI, 2004).
Several values for one entry are separate records, joined by “and”; a condition that tells them apart may be missing. Equal values may be shown once. Results filed as inconclusive are left out.

System: nude mice, HT29 intrarenal xenograft, tumor weight T/C
Experiment: NCI In Vivo Anticancer Drug Screen. Data for tumor model HT29;CX-1 Human Adenocarcinoma (MER+) (intrarenal inoculation) in NU/NU Swiss (nude) mice
Settings: endpoint: mean tumor weight change, higher = larger tumour
Description: The antitumor activity of compounds was measured in mice bearing transplantable tumors. Survival or tumor size were measured and the results are expressed as the measurement made in the treated group (T) divided by the measurement made in the vehicle treated control group (C). The tumor model used in this assay is HT29;CX-1 Human Adenocarcinoma (MER+) (intrarenal inoculation) in NU/NU Swiss (nude) mice

[1] = dose: 6.25 mg/kg/injection, schedule: Q01DX010 (sc), vehicle: saline with Tween-80
[2] = dose: 600.0 mg/kg/injection, schedule: Q04DX004 (sc), vehicle: Klucel (hydroxypropylcellulose) (HPC)
[3] = dose: 100.0 mg/kg/injection, schedule: Q01DX010 (sc), vehicle: water
[4] = dose: 5.0 mg/kg/injection, schedule: Q01DX010 (sc), vehicle: saline with Tween-80
[5] = dose: 50.0 mg/kg/injection, schedule: Q04DX004 (sc), vehicle: saline
[6] = dose: 100.0 mg/kg/injection, schedule: Q04DX004 (sc), vehicle: saline
[7] = dose: 200.0 mg/kg/injection, schedule: Q04DX004 (sc), vehicle: saline
[8] = dose: 400.0 mg/kg/injection, schedule: Q04DX004 (sc), vehicle: saline

## O=CC(S)CO (centres undefined)
dose: 100.0 mg/kg/injection, schedule: Q04DX004 (sc), vehicle: suspension in saline
  T/C: 92 % of control
dose: 200.0 mg/kg/injection, schedule: Q04DX004 (sc), vehicle: suspension in saline
  T/C: 69 % of control
dose: 400.0 mg/kg/injection, schedule: Q04DX004 (sc), vehicle: suspension in saline
  T/C: 101 % of control
dose: 800.0 mg/kg/injection, schedule: Q04DX004 (sc), vehicle: suspension in saline
  T/C: 72 % of control

## C=CC(=O)N1CN(C(=O)C=C)CN(C(=O)C=C)C1
[1]
  T/C: 183 % of control
dose: 12.5 mg/kg/injection, schedule: Q01DX010 (sc), vehicle: saline with Tween-80
  T/C: 45 % of control

## C[C@]12CCC(=O)C=C1CC[C@@H]1[C@@H]2[C@@H](O)C[C@@]2(C)[C@H]1CC[C@]2(O)C(=O)CO
[2]
  T/C: 18 % of control and 26 % of control

## CC(C)[C@](O)(C(=O)OCC1=CC[N+]2([O-])CC[C@@H](O)[C@@H]12)[C@H](C)O (some centres undefined)
[3]
  T/C: 38 % of control
dose: 200.0 mg/kg/injection, schedule: Q01DX010 (sc), vehicle: water
  T/C: 48 % of control
dose: 400.0 mg/kg/injection, schedule: Q01DX010 (sc), vehicle: water
  T/C: 36 % of control
dose: 800.0 mg/kg/injection, schedule: Q01DX010 (sc), vehicle: water
  T/C: 44 % of control

## O=c1[nH]c(=O)n(C2CC(O)C(CO)O2)cc1C(F)(F)F (centres undefined)
dose: 100.0 mg/kg/injection, schedule: Q01DX010 (sc), vehicle: saline
  T/C: 202 % of control
dose: 200.0 mg/kg/injection, schedule: Q01DX010 (sc), vehicle: saline
  T/C: 104 % of control
dose: 400.0 mg/kg/injection, schedule: Q01DX010 (sc), vehicle: saline
  T/C: 73 % of control

## NC(=O)/C=C/C(=O)c1c(Cl)cccc1Cl
dose: 36.0 mg/kg/injection, schedule: Q04DX004 (sc), vehicle: saline with Tween-80
  T/C: 52 % of control

## CC1OC(=O)C(C(C)C)NC(=O)C(C(C)C)OC(=O)C(C(C)C)NC(=O)C(C)OC(=O)C(C(C)C)NC(=O)C(C(C)C)OC(=O)C(C(C)C)NC(=O)C(C)OC(=O)C(C(C)C)NC(=O)C(C(C)C)OC(=O)C(C(C)C)NC1=O (centres undefined)
[4]
  T/C: 87 % of control and 103 % of control

## CCC(C(=O)O)C(=O)O.[NH-]CC1CCCC[N-]1.[Pt+2]
[5]
  T/C: 113 % of control
[6]
  T/C: 96 % of control
[7]
  T/C: 79 % of control
[8]
  T/C: 59 % of control

## Cc1cc(NCCCN(C)C)c2ccc3c(ccc4c(NCCCN(C)C)cc(C)nc43)c2n1
dose: 9.38 mg/kg/injection, schedule: Q04DX004 (sc), vehicle: saline with Tween-80
  T/C: 53 % of control

## CS(=O)(=O)OCCCCOS(C)(=O)=O
[1]
  T/C: 121 % of control
dose: 25.0 mg/kg/injection, schedule: Q01DX010 (sc), vehicle: saline with Tween-80
  T/C: 238 % of control

## O=C1NC2(CCCCC2)C(=O)N1CCN(CCCl)CCCl
dose: 6.0 mg/kg/injection, schedule: Q01DX010 (sc), vehicle: saline
  T/C: 64 % of control
dose: 24.0 mg/kg/injection, schedule: Q01DX010 (sc), vehicle: saline
  T/C: 21 % of control and 23 % of control
dose: 48.0 mg/kg/injection, schedule: Q01DX010 (sc), vehicle: saline
  T/C: 23 % of control

## C=C(OP(=O)(OC)OC)Sc1ccccc1C
dose: 100.0 micrograms/kg/injection, schedule: Q04DX004 (sc), vehicle: Klucel (hydroxypropylcellulose) (HPC)
  T/C: 84 % of control
dose: 400.0 micrograms/kg/injection, schedule: Q04DX004 (sc), vehicle: Klucel (hydroxypropylcellulose) (HPC)
  T/C: 95 % of control
dose: 800.0 micrograms/kg/injection, schedule: Q04DX004 (sc), vehicle: Klucel (hydroxypropylcellulose) (HPC)
  T/C: 118 % of control

## Cc1c2cc[n+](C)cc2c(C)c2c1[nH]c1ccc(O)cc12
dose: 1.25 mg/kg/injection, schedule: Q04DX004 (sc), vehicle: water
  T/C: 360 % of control
dose: 2.5 mg/kg/injection, schedule: Q04DX004 (sc), vehicle: water
  T/C: 120 % of control

## NC(=O)c1ncn2c(=O)n(CCCl)nnc12
dose: 25.0 mg/kg/injection, schedule: Q04DX004 (sc), vehicle: suspension in saline
  T/C: 214 % of control
dose: 50.0 mg/kg/injection, schedule: Q04DX004 (sc), vehicle: suspension in saline
  T/C: 72 % of control

## CN(C)c1ccc(C(=C2C=CC(=[N+](C)C)C=C2)c2ccc(N(C)C)cc2)cc1 (tested in a mixture with another compound)
dose: 1.25 mg/kg/injection, schedule: Q01DX010 (sc), vehicle: saline with Tween-80
  T/C: 86 % of control
dose: 2.5 mg/kg/injection, schedule: Q01DX010 (sc), vehicle: saline with Tween-80
  T/C: 111 % of control
[4]
  T/C: 100 % of control
dose: 10.0 mg/kg/injection, schedule: Q01DX010 (sc), vehicle: saline with Tween-80
  T/C: 60 % of control

## O=[N+]([O-])O.[Ga]
[5]
  T/C: 99 % of control
[6]
  T/C: 66 % of control
[7]
  T/C: 80 % of control
[8]
  T/C: 103 % of control

## C=C(NC(=O)C(=C)NC(=O)c1csc(C2=NC3c4csc(n4)C4NC(=O)c5csc(n5)C(C(C)(O)C(C)O)NC(=O)C5CSC(=N5)/C(=C/C)NC(=O)C(C(C)O)NC(=O)c5csc(n5)C3(CC2)NC(=O)C(C)NC(=O)C(=C)NC(=O)C(=C)NC(=O)C(C(C)C)NC2C=Cc3c(C(C)O)cc(nc3C2O)C(=O)OC4C)n1)C(N)=O (centres undefined)
dose: 125.0 mg/kg/injection, schedule: Q04DX004 (sc), vehicle: suspension in saline
  T/C: 789 % of control
dose: 250.0 mg/kg/injection, schedule: Q04DX004 (sc), vehicle: suspension in saline
  T/C: 419 % of control
dose: 500.0 mg/kg/injection, schedule: Q04DX004 (sc), vehicle: saline
  T/C: 59 % of control
dose: 750.0 mg/kg/injection, schedule: Q04DX004 (sc), vehicle: saline
  T/C: 97 % of control
dose: 750.0 mg/kg/injection, schedule: Q04DX004 (sc), vehicle: suspension in saline
  T/C: 73 % of control
dose: 1000.0 mg/kg/injection, schedule: Q04DX004 (sc), vehicle: saline
  T/C: 65 % of control
dose: 1250.0 mg/kg/injection, schedule: Q04DX004 (sc), vehicle: saline
  T/C: 91 % of control
dose: 1250.0 mg/kg/injection, schedule: Q04DX004 (sc), vehicle: suspension in saline
  T/C: 82 % of control

## COc1cc(NS(C)(=O)=O)ccc1Nc1c2ccccc2nc2ccccc12
dose: 0.38 mg/kg/injection, schedule: Q01DX010 (sc), vehicle: other
  T/C: 33 % of control
dose: 0.75 mg/kg/injection, schedule: Q01DX010 (sc), vehicle: lactic acid
  T/C: 43 % of control
dose: 0.75 mg/kg/injection, schedule: Q01DX010 (sc), vehicle: other
  T/C: 15 % of control
dose: 0.78 mg/kg/injection, schedule: Q01DX010 (sc), vehicle: lactic acid
  T/C: 15 % of control
dose: 1.5 mg/kg/injection, schedule: Q01DX010 (sc), vehicle: lactic acid
  T/C: 30 % of control
dose: 1.5 mg/kg/injection, schedule: Q01DX010 (sc), vehicle: other
  T/C: 39 % of control
dose: 3.0 mg/kg/injection, schedule: Q01DX010 (sc), vehicle: other
  T/C: 99 % of control

## C[n+]1c(/C=C\C=C\N2CCCCC2)sc2ccccc21
dose: 1.5 mg/kg/injection, schedule: Q04DX004 (sc), vehicle: Klucel (hydroxypropylcellulose) (HPC)
  T/C: 84 % of control
dose: 3.0 mg/kg/injection, schedule: Q04DX004 (sc), vehicle: Klucel (hydroxypropylcellulose) (HPC)
  T/C: 41 % of control

## Cc1ccc(S(=O)(=O)N/N=C/C(Br)=C(/Br)C(=O)O)cc1
dose: 150.0 mg/kg/injection, schedule: Q04DX004 (sc), vehicle: Klucel (hydroxypropylcellulose) (HPC)
  T/C: 47 % of control
dose: 300.0 mg/kg/injection, schedule: Q04DX004 (sc), vehicle: Klucel (hydroxypropylcellulose) (HPC)
  T/C: 55 % of control
[2]
  T/C: 22 % of control

## CCCCNC(C)C1(O)Cc2c(O)c3c(c(O)c2C(OC2CC(N)C(O)C(C)O2)C1)C(=O)c1c(OC)cccc1C3=O (centres undefined)
[3]
  T/C: 44 % of control

## c1ccc([P+](c2ccccc2)(c2ccccc2)c2ccccc2)cc1
dose: 5.0 mg/kg/injection, schedule: Q04DX004 (sc), vehicle: saline
  T/C: 105 % of control
dose: 10.0 mg/kg/injection, schedule: Q04DX004 (sc), vehicle: saline
  T/C: 107 % of control
dose: 20.0 mg/kg/injection, schedule: Q04DX004 (sc), vehicle: saline
  T/C: 68 % of control

## CCc1c(CC(=O)O)c2cc(C)ccc2n1Cc1ccc(Cl)cc1
dose: 100.0 mg/kg/injection, schedule: Q04DX004 (sc), vehicle: Klucel (hydroxypropylcellulose) (HPC)
  T/C: 77 % of control
dose: 200.0 mg/kg/injection, schedule: Q04DX004 (sc), vehicle: Klucel (hydroxypropylcellulose) (HPC)
  T/C: 74 % of control
dose: 400.0 mg/kg/injection, schedule: Q04DX004 (sc), vehicle: Klucel (hydroxypropylcellulose) (HPC)
  T/C: 86 % of control
dose: 800.0 mg/kg/injection, schedule: Q04DX004 (sc), vehicle: Klucel (hydroxypropylcellulose) (HPC)
  T/C: 97 % of control
